# Source: patent US8790735B2, “Method of preferentially reducing absorption of saturated fat and compositions” (General Mills, Inc., priority 2005, dated 2014)
# Entries after “also recorded” stand apart in the source; their conditions may differ.
# Tested on: Male Wistar rats
# Assay: Excretion of radiolabeled triolein and tripalmitin in rats fed test diets
# Assay type: in vivo, rat
# Method: As noted above, saturated fat is deemed to be complexed if at least about 5% of the available saturated fat is complexed. The amount of fat that is complexed is determined by conducting excretion studies as detailed below, and determining the amount of fat that is excreted as compared to a control sample not containing complexed fat. While some of the complexed fat may dissociate in the body, the excretion study will identify the minimum percentage of fat that is complexed.
# • 13. Centrifuge the isolated aqueous layer from 11 above at 5000×g for 10 min. • 14. Filter 1 ml of the centrifuged sample supernatant with 0.45 micrometer nylon filter. Inject on to HPLC molecular sizing column. Quantify total cyclodextrin relative to a response factor developed from a standard curve of pure cyclodextrin. • 15. For Pure Fat Samples Only: Weigh remainder of supernatant sample into tared flask. Evaporate moisture to dryness. Record weight of solids. (note: net weight for non-salt containing fat samples will represent free alpha-cyclodextrin) • 16. Subtract free alpha-cyclodextrin amounts determined in 8 above from values determined in steps 15 and 16. Value equals total bound alpha-cyclodextrin. Experimental Design Male Wistar rats, 125-150 g in initial weight, 10 per group, were fed one of four diets. The diets were modifications of the AIN-93G diet [Reeves, PG (1997) Components of the AIN-93 Diets as Improvements in the AIN-76A Diet, J. Nutr. 127:838 S-841S], and thus was a purified diet. All diets were modified to contain 15% fat by weight, wherein the fat comprised 50% ^14C-triolein, an unsaturated fat that is a triglyceride of oleic acid, and 50% ^3H-tripalmitin, a saturated fat that is a triglyceride of palmitic acid. The diets were as follows:
# Note that Diet 3 comprised the AIN-93G diet containing 5% α-cyclodextrin (replacing cellulose), which was added in the free unhydrated form as provided by the manufacturer (unhydrated ACD contains approximately 10% w/w moisture). Diet 4 comprised the AIN-93G diet containing 5% hydrated α-cyclodextrin (replacing cellulose), mixed with the radiolabeled fat prior to incorporation into the diet.
# The animals were fed their respective diets for 7 days. A two day fecal fat collection was made during days 6 and 7 to allow for a conventional fecal fat determination (i.e. fat extraction with acidified chloroform:methanol). The animals were then fasted overnight, and presented with a 4 g meal of their respective diets containing ^14C-triolein and ^3H-tripalmitin incorporated into the diet. A fecal collection was begun four hours later, and continued until the animals were taken. Twelve hours later, the rats were killed and the small and large intestinal tracts removed. Contents of the stomach, small intestine, cecum, and colon as well as the small intestinal mucosa were collected and freeze-dried. […] After solubilization, the solution was neutralized with glacial acetic acid (to eliminate chemiluminescence), scintillation cocktail added, and the vials counted in a liquid scintillation counter using a dual label counting algorithm.
# In this study, excretion is defined as all radiolabel present in the cecal contents, colon contents, and feces. Excretion is calculated in this manner as there is no absorption of triacylglycerols in the large intestine; thus, any radiolabel present in the cecal or colon contents cannot be absorbed and is thus destined to be excreted. […]
# [1] = 5% in AIN-93G diet with 15% fat, fed 7 days, then 4 g radiolabeled meal, FIG. 1
structure (smiles),measurement,setting,value
"OC[C@H]1O[C@@H]2O[C@H]3[C@H](O)[C@@H](O)[C@@H](O[C@H]4[C@H](O)[C@@H](O)[C@@H](O[C@H]5[C@H](O)[C@@H](O)[C@@H](O[C@H]6[C@H](O)[C@@H](O)[C@@H](O[C@H]7[C@H](O)[C@@H](O)[C@@H](O[C@H]1[C@H](O)[C@H]2O)O[C@@H]7CO)O[C@@H]6CO)O[C@@H]5CO)O[C@@H]4CO)O[C@@H]3CO [α-cyclodextrin, alpha-cyclodextrin]","triolein excretion (radiolabel in cecal contents, colon contents and feces)",[1],no or only a modest effect
same,"tripalmitin excretion (radiolabel in cecal contents, colon contents and feces)",[1],dramatically increased; also recorded: dramatic effect
same,"triolein excretion (radiolabel in cecal contents, colon contents and feces)","5% in AIN-93G diet with 15% fat, fed 7 days, then 4 g radiolabeled meal, FIG. 1, listed as α-Cyclodextrin",no affect
same,ratio of excretion of tripalmitin to triolein,"calculated from FIG. 1 values (radiolabel excreted as proportion of radiolabel consumed), FIG. 2",favored tripalmitin excretion
same,fat excretion,"dietary, 5% in diet, rats",does indeed increase fat excretion
